Data as given in patent US7858635B2 (priority 2005, dated 2010).
Read-outs that look alike come from different tables or passages of the source.

Columns and labels:
M1 muscarinic receptor = target: T1, M1 muscarinic receptor (Homo sapiens, UniProt P11229); assay: Functional mobilization of intracellular calcium (FLIPR, Fluo-3), M1-CHO cells; assay type: cell-based; conditions: for Emax: read-out: M1 Efficacy
T1 construct: expressed in transfected cells; host or cells: CHO cells (M1-CHO, under zeocin and G418 selection)
T1 sequence (P11229 1-460): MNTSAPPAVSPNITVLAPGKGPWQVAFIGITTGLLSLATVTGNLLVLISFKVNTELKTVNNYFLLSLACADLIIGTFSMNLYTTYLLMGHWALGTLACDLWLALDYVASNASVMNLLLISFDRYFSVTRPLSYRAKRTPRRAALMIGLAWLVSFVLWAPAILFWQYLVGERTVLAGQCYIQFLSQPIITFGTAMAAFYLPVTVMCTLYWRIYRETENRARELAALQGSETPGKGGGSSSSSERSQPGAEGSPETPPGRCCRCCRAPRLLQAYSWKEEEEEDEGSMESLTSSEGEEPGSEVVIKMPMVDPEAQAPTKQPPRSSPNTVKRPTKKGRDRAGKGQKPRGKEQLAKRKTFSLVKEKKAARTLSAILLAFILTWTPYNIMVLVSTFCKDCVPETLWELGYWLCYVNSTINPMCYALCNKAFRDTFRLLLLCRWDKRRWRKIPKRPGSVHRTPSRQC
In short: (§1)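 Intracellular calcium was tracked by fluorescence (488/540 nm) over 60 sec after compound addition to dye-loaded CHO cells expressing the receptor. Inhibitory activity used a 15 min pre-incubation before carbachol at the subtype EC80.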

M4 muscarinic receptor = target: T2, M4 muscarinic receptor (Homo sapiens, UniProt P08173); assay: Functional mobilization of intracellular calcium (FLIPR, Fluo-3), M4-CHO cells; assay type: cell-based; conditions: for Emax: read-out: M4 Efficacy
T2 construct: expressed in transfected cells; host or cells: CHO cells (M4-CHO, under puromycin, zeocin and blasticidin selection)
T2 sequence (P08173 1-479): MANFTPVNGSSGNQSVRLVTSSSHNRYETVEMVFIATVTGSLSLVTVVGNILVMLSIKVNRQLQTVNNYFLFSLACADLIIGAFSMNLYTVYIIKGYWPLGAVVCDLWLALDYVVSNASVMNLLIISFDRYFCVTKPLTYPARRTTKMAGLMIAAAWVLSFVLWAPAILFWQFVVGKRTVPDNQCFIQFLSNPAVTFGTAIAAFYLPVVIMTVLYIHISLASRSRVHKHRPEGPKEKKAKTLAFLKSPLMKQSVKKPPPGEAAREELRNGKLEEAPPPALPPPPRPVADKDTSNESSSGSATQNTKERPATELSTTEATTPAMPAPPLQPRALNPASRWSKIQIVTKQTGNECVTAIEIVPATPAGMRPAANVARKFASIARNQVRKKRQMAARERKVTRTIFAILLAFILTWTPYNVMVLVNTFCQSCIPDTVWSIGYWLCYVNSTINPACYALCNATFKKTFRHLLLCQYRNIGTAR
In short: as §1

[1] = compound nos. 1-454, 100% efficacy is the maximum response obtained with the Carbachol control
[2] = compound nos. 1-454, M1-CHO cells, calcium mobilization
[3] = compound nos. 1-454, M4-CHO cells, calcium mobilization
[4] = compound nos. 455-509, 100% efficacy is the maximum response obtained with the Carbachol control

SMILES	Emax (M1 muscarinic receptor; [1])	M1 Activity (M1 muscarinic receptor; [2])	Emax (M4 muscarinic receptor; [1])	M4 Activity (M4 muscarinic receptor; [3])	further results
O=C(OC1CCC1)N1C2CCC1CC(N1CCC3(CCc4ccccc43)CC1)C2 (stereo not shown) [compound 68]	< 65%	++ (activity was measured to be between 0.7 μM and 3.0 μM)	< 55%	+ (activity was measured to be greater than or equal to 4.0 μM)	–
CN(C)C(=O)N1CC2(CCN(C3CCN(c4ccc(F)cc4)CC3)CC2)c2cc(F)ccc21 [compound 439]	65 to 85%	–	< 55%	–	M1 Activity (M1 muscarinic receptor; compound nos. 1-454): ++ (activity was measured to be between 0.7 μM and 3.0 μM); M4 Activity (M4 muscarinic receptor; compound nos. 1-454): +++ (activity was measured to be less than or equal to 0.1 μM)
CCOC(=O)N1CCC(N2CCC3(CC2)CN(C(=O)N(CC)CC)c2ccc(F)cc23)CC1 [compound 223]	< 65%	+ (activity was measured to be greater than or equal to 3.0 μM)	< 55%	+ (activity was measured to be greater than or equal to 4.0 μM)	–
CCOC(=O)N1CCC(N2CCC3(CC2)CN(C(=O)N(C)c2ccccc2)c2ccc(F)cc23)CC1 [compound 169]	65 to 85%	+++ (activity was measured to be less than or equal to 0.7 μM)	> 70%	+ (activity was measured to be greater than or equal to 4.0 μM)	–
CCOC(=O)N1C2CCC1CC(N1CCC3(CC1)CN(S(=O)(=O)c1ccc(F)cc1)c1ccc(F)cc13)C2 (stereo not shown) [compound 40]	65 to 85%	+++ (activity was measured to be less than or equal to 0.7 μM)	> 70%	++ (activity was measured to be between 0.1 μM and 4.0 μM)	–
COc1ccc(OC(=O)N2C3CCC2CC(N2CCC4(CC2)COc2ccc(F)cc24)C3)cc1 (stereo not shown) [compound 100]	–	+++ (activity was measured to be less than or equal to 0.7 μM)	–	++ (activity was measured to be between 0.1 μM and 4.0 μM)	Emax (M1 muscarinic receptor): 65 to 85%; Emax (M4 muscarinic receptor): 55 to 70%
COCCOC(=O)N1CCC(N2CCC3(CC2)CN(C(C)=O)c2ccc(F)cc23)CC1 [compound 284]	< 65%	++ (activity was measured to be between 0.7 μM and 3.0 μM)	< 55%	++ (activity was measured to be between 0.1 μM and 4.0 μM)	–
CC(=O)N1CCC2(CCN(C3CCN(c4cnccn4)CC3)CC2)c2ccccc21 [compound 463]	–	–	–	–	Emax (M1 muscarinic receptor; [4]): > 100%; M1 Activity (M1 muscarinic receptor; compounds 455-509): +++ (activity was measured to be less than or equal to 2.0 μM); Emax (M4 muscarinic receptor; [4]): 25 to 100%; M4 Activity (M4 muscarinic receptor; compounds 455-509): ++ (activity was measured to be between 2.0 μM and 5.0 μM)
Clc1ccc2c(c1)C1(CCO2)CCN(C2CCCCC2)CC1 [compound 276]	65 to 85%	+++ (activity was measured to be less than or equal to 0.7 μM)	55 to 70%	+ (activity was measured to be greater than or equal to 4.0 μM)	–
Clc1ccc2c(c1)C1(CCO2)CCN([C@@H]2C[C@@H]3CC[C@@H]2C3)CC1 [compound 369]	> 85%	+++ (activity was measured to be less than or equal to 0.7 μM)	> 70%	++ (activity was measured to be between 0.1 μM and 4.0 μM)	–
CC(=O)N1CC2(CCN(C3CCC4(CC3)CC(C)=NO4)CC2)c2cc(F)ccc21 (stereo not shown) [compound 433]	65 to 85%	–	< 55%	–	M1 Activity (M1 muscarinic receptor; compound nos. 1-454): ++ (activity was measured to be between 0.7 μM and 3.0 μM); M4 Activity (M4 muscarinic receptor; compound nos. 1-454): ++ (activity was measured to be between 0.1 μM and 4.0 μM)
CC(C)OC(=O)N1CCC(N2CCC3(CC2)CN(C(=O)N(C)C)c2ccc(F)cc23)CC1 [compound 54]	> 85%	+++ (activity was measured to be less than or equal to 0.7 μM)	55 to 70%	++ (activity was measured to be between 0.1 μM and 4.0 μM)	–
Clc1ccc2c(c1)C1(CCN(CC3CCOCC3)CC1)CO2 [compound 415]	< 65%	–	< 55%	–	M1 Activity (M1 muscarinic receptor; compound nos. 1-454): + (activity was measured to be greater than or equal to 3.0 μM); M4 Activity (M4 muscarinic receptor; compound nos. 1-454): + (activity was measured to be greater than or equal to 4.0 μM)
CCOC(=O)N1CCC(N2CCC3(CC2)CN(C(=O)CC(C)(C)C)c2ccc(F)cc23)CC1 [compound 194]	> 85%	+++ (activity was measured to be less than or equal to 0.7 μM)	55 to 70%	+ (activity was measured to be greater than or equal to 4.0 μM)	–
CN(C)C(=O)N1CC2(CCN(C3CCN(c4cncc(Cl)n4)CC3)CC2)c2ccccc21 [compound 469]	–	–	–	–	Emax (M1 muscarinic receptor; [4]): > 100%; M1 Activity (M1 muscarinic receptor; compounds 455-509): +++ (activity was measured to be less than or equal to 2.0 μM); Emax (M4 muscarinic receptor; [4]): 25 to 100%; M4 Activity (M4 muscarinic receptor; compounds 455-509): ++ (activity was measured to be between 2.0 μM and 5.0 μM)
CN(C)C(=O)N1CC2(CCN(C3CCN(c4ncccn4)CC3)CC2)c2cc(F)ccc21 [compound 445]	65 to 85%	–	55 to 70%	–	M1 Activity (M1 muscarinic receptor; compound nos. 1-454): ++ (activity was measured to be between 0.7 μM and 3.0 μM); M4 Activity (M4 muscarinic receptor; compound nos. 1-454): +++ (activity was measured to be less than or equal to 0.1 μM)
CCOC(=O)N1C2CCC1CC(CN1CCC3(CC1)CNc1ccc(F)cc13)C2 (stereo not shown) [compound 368]	< 65%	+++ (activity was measured to be less than or equal to 0.7 μM)	< 55%	++ (activity was measured to be between 0.1 μM and 4.0 μM)	–
CCOC(=O)N1CCC(N2CCC3(CC2)CN(C(=O)OC)c2ccc(F)cc23)CC1 [compound 173]	65 to 85%	+++ (activity was measured to be less than or equal to 0.7 μM)	> 70%	++ (activity was measured to be between 0.1 μM and 4.0 μM)	–
CCOC(=O)N1CCC(N2CCC3(CC2)CN(C(C)=O)c2ccc(-c4ccccc4OC)cc23)CC1 [compound 150]	65 to 85%	+++ (activity was measured to be less than or equal to 0.7 μM)	> 70%	+ (activity was measured to be greater than or equal to 4.0 μM)	–
CC(=O)N1CC2(CCN(CC3CC4CCC3CC4)CC2)c2cc(F)ccc21 (stereo not shown) [compound 366]	< 65%	++ (activity was measured to be between 0.7 μM and 3.0 μM)	< 55%	+ (activity was measured to be greater than or equal to 4.0 μM)	–
CS(=O)(=O)N1CC2(CCN(C3CC4CCC(C3)N4C(=O)O[C@@H]3CCOC3)CC2)c2cc(F)ccc21 (stereo partly shown) [compound 16]	65 to 85%	+++ (activity was measured to be less than or equal to 0.7 μM)	55 to 70%	+++ (activity was measured to be less than or equal to 0.1 μM)	–
O=C(OC1CCC1)N1CC2(CCN(C3CC4CCC(C3)N4C(=O)O[C@H]3CCOC3)CC2)c2cc(F)ccc21 (stereo partly shown) [compound 125]	65 to 85%	+++ (activity was measured to be less than or equal to 0.7 μM)	< 55%	++ (activity was measured to be between 0.1 μM and 4.0 μM)	–
